Data published in patent publication US3956312A, “Indazole-3-carboxylic acid hydrazides and a process for the preparation thereof” (Egyt Gyogyszervegyeszeti Gyar, priority 1973, dated 1976).
Where a name gives a salt, the structure may show the parent alone. Read-outs that look alike come from different tables or passages of the source.

What was measured:
[1] = antidepressant activity, inhibition of tetrabenazine ptosis; format: in vivo, mice; settings: mouse, in vivo; Table 4, antidepressant activity, mice, oral; read-out: Therapeutical index
Description: (§1) The antidepressant activity was examined on mice, after oral administration. Tetrabenazine was administered to the animals in a dosage provoking maximum ptosis, and the inhibiting activity of the tested compounds was measured.

tetrabenazine ptosis = test: as above; format: in vivo, mice; settings: for ED50: Mus musculus, mice, oral, tetrabenazine ptosis
Description: as §1

[2] = toxicity LD50 listed with the antidepressant activity (Table 4); settings: mouse, in vivo
[3] = spasmolytic effect in vivo, carbon suspension method of Stickney; settings: mouse, in vivo, ip; Table 1, spasmolytic effect, white mice, intraperitoneal; read-out: Therapeutical index LD50/ED50
Description: (§2) The spasmolytic effect was tested under in vivo conditions on white mice, by the carbon suspension method of Stickney. The active agents were administered intraperitoneally, and the total length of the small intestines as well as the length of the intestines filled with carbon were measured. […] The ED50 values were calculated according to the LitchfieldWilcoxon method from the thus-transformed values. In order to evaluate the safety margin of the active agents, the acute LD50 values were also determined on white mice in intraperitoneal administration. The observation periods in the toxicity tests were 48 hours, and the calculation was performed according to the LitchfieldWilcoxon method, also taking into consideration the perished animals.

small intestines = test: as above; settings: Mus musculus, ip; white mice, intraperitoneal, Litchfield-Wilcoxon
Description: as §2

gastric acid secretion [4] = test: inhibition of gastric acid secretion, Shay's method; format: in vivo, Wistar rats; settings: 5 hours
Description: The animals were operated according to Shay's method, and the substance to be tested was administered intraperitoneally. After 5 hours the animals were sacrified, and the volume of gastric juice, the amount of free hydrochloric acid, and the total acidity were determined.

[5] = acute toxicity (LD50), intraperitoneal, 48 hours observation; settings: mouse, in vivo, ip, read-out: Toxicity LD5
Description: as §2

gastric acid secretion [6] = test: inhibition of gastric acid secretion, Shay's method; format: in vivo, Wistar rats; settings: 5 hours; remark: listed apart in the source
Shay ulcer = test: antiulcer activity, Shay ulcer; format: in vivo, rats; settings: related to the controls averages
Description: (§3) The antiulcer activity of 5,6-dimethoxyindazole-3-carboxylic acid-benzylhydrazide was determined on rats.
**Shay ulcer (Shay, H., Komarov, S.A., Fels, S.S., Meranze, D.,
Gruenstein, M., Siplet, H.: Gastroenterology 5, 45 /1945/)

[7] = toxicity on mice p.o. (Table 2); settings: mouse, in vivo, po
Reserpine-ulcer = test: antiulcer activity, Reserpine-ulcer; format: in vivo, rats; settings: related to the controls averages
Description: as §3

[8] = white mice, intraperitoneal, 48 hours observation

For CN(C)CCC=C1c2ccccc2CCc2ccccc21 [amitryptiline, 5-(3-dimethylamino-propylidene)-10,11-dihydro-5H-dibenzo(a,d)cycloheptan hydrochloride, reference compound], the selectivity ratio [1] was 17.3, the ED50 (tetrabenazine ptosis) was 13 mg/kg and the LD50 ([2]; Table 4) was 225 mg/kg.

In the case of COc1cc2[nH]nc(C(=O)NNC(C)C)c2cc1OC [Compound 7], the selectivity ratio [3] is reported as 20, the ED50 (small intestines) is reported as 36 mg/kg and the “Percentage inhibition of free HCl” value (gastric acid secretion [4]; 100 mg./kg. intraperitoneal) is reported as 85%. The “Percentage inhibition of gastric juice” value (gastric acid secretion [4]; 100 mg./kg. intraperitoneal) was 80%, the “Percentage inhibition of total acidity” value (gastric acid secretion [4]; 100 mg./kg. intraperitoneal) was 67% and the LD50 at 48 h [5, 8] was 720 mg/kg.

For COc1ccc(CC(C)NNC(=O)c2n[nH]c3cc(OC)c(OC)cc23)cc1OC (centres unmarked) [Compound 37, 5,6-dimethoxyindazole-3-carboxylic acid-2'-(3'-/3",4"-dimethoxyphenyl/)-propylhydrazide], the selectivity ratio [3] was 310, the ED50 (small intestines) was 8.7 mg/kg and the LD50 at 48 h [5, 8] was 2700 mg/kg.

In the case of COc1cc2[nH]nc(C(=O)NNCc3ccccc3O)c2cc1OC [Compound 32, 5,6-dimethoxyindazole-3-carboxylic acid-2'-hydroxybenzylhydrazide], the selectivity ratio [1] is reported as 136, the ED50 (tetrabenazine ptosis) is reported as 22 mg/kg and the therapeutical width (tetrabenazine ptosis; compared with amitryptiline) is reported as “significantly exceeds that of the well known agent, amitryptiline”. For the same compound, the selectivity ratio [3] was 120, the ED50 (small intestines) was 25 mg/kg and the LD50 at 48 h [5] was over 3000 mg/kg. The LD50 [2] was over 3000 mg/kg.

With COc1cc2[nH]nc(C(=O)NNC(C)c3ccc([N+](=O)[O-])cc3)c2cc1OC (centres unmarked) [Compound 35, 5,6-dimethoxyindazole-3-carboxylic acid-1'-(4"-nitrophenyl)-ethylhydrazide] the selectivity ratio [1] was 17.9, the ED50 (tetrabenazine ptosis) was 280 mg/kg and the selectivity ratio [3] was 2000. It also gave an ED50 (small intestines) of 2.5 mg/kg, an LD50 at 48 h [5] of 5000 mg/kg and an LD50 [2] of over 5000 mg/kg.

For CCN(CC)CCOC(=O)C(c1ccccc1)c1ccccc1.Cl [Adiphenine, 2-diethylaminoethyl-diphenylacetate hydrochloride, reference compound], the “Percentage inhibition of free HCl” value (gastric acid secretion [4]; 100 mg./kg. intraperitoneal) was 0%, the “Percentage inhibition of gastric juice” value (gastric acid secretion [4]; 100 mg./kg. intraperitoneal) was 36% and the “Percentage inhibition of total acidity” value (gastric acid secretion [4]; 100 mg./kg. intraperitoneal) was 0%.

With COc1ccc(Cc2nccc3cc(OC)c(OC)cc23)cc1OC [papaverine, reference compound] the selectivity ratio [3] was 2.9, the ED50 (small intestines) was 46 mg/kg and the LD50 at 48 h [5, 8] was 132 mg/kg.

For CCCN(CCC)C(=O)C(CCC(=O)O)NC(=O)c1ccccc1 (centres unmarked) [Xylamide, reference compound], the “Percentage inhibition of free HCl” value (gastric acid secretion [6]; 500 mg./kg. intraperitoneal) was 89%, the “Percentage inhibition of gastric juice” value (gastric acid secretion [6]; 500 mg./kg. intraperitoneal) was 81% and the “Percentage inhibition of total acidity” value (gastric acid secretion [6]; 500 mg./kg. intraperitoneal) was 80%.

For COc1cc2[nH]nc(C(=O)NNC3CCCCCC3)c2cc1OC [Compound 28, 5,6-dimethoxyindazole-3-carboxylic acid-cycloheptylhydrazide], the selectivity ratio [3] was 4.3, the ED50 (small intestines) was 280 mg/kg and the “Percentage inhibition of free HCl” value (gastric acid secretion [4]; 50 mg./kg. intraperitoneal) was 47%. For the same compound, the “Percentage inhibition of free HCl” value (gastric acid secretion [4]; 100 mg./kg. intraperitoneal) was 63%, the “Percentage inhibition of gastric juice” value (gastric acid secretion [4]; 100 mg./kg. intraperitoneal) was 47% and the “Percentage inhibition of total acidity” value (gastric acid secretion [4]; 100 mg./kg. intraperitoneal) was 36%. For the same compound, the LD50 at 48 h [5, 8] was 1200 mg/kg, the “Percentage inhibition of gastric juice” value (gastric acid secretion [6]; 50 mg./kg. intraperitoneal) was 46% and the “Percentage inhibition of total acidity” value (gastric acid secretion [6]; 50 mg./kg. intraperitoneal) was 38%.

With COc1cc2[nH]nc(C(=O)NNCc3ccccc3)c2cc1OC [Compound 30, 5,6-dimethoxyindazole-3-carboxylic acid-benzylhydrazide] the selectivity ratio [1] was 14.3, the ED50 (tetrabenazine ptosis) was 140 mg/kg and the “Percentage inhibition according to the occurrence of ulcer” value (Shay ulcer; 100 mg./kg.) was 12%. The “Percentage inhibition according to the ulcer index” value (Shay ulcer; 100 mg./kg.) was 33%, the “Percentage inhibition according to ulcer diameters 2-5 mm.” value (Shay ulcer; 100 mg./kg.) was 42% and the “Percentage inhibition according to ulcer diameters 5-10 mm.” value (Shay ulcer; 100 mg./kg.) was 71%. The “Percentage inhibition according to ulcer diameters <2 mm.” value (Shay ulcer; 100 mg./kg.) was 0%, the “Percentage inhibition according to ulcer diameters >10 mm.” value (Shay ulcer; 100 mg./kg.) was 62% and the “Percentage inhibition according to the occurrence of ulcer” value (Shay ulcer; 200 mg./kg.) was 22%. For the same compound, the “Percentage inhibition according to the ulcer index” value (Shay ulcer; 200 mg./kg.) was 53%, the “Percentage inhibition according to ulcer diameters 2-5 mm.” value (Shay ulcer; 200 mg./kg.) was 85% and the “Percentage inhibition according to ulcer diameters 5-10 mm.” value (Shay ulcer; 200 mg./kg.) was 67%. The “Percentage inhibition according to ulcer diameters <2 mm.” value (Shay ulcer; 200 mg./kg.) was 86%, the “Percentage inhibition according to ulcer diameters >10 mm.” value (Shay ulcer; 200 mg./kg.) was 100% and the LD50 [7] was 2000 mg/kg. The “Percentage inhibition according to the occurrence of ulcer” value (Reserpine-ulcer; 10 mg./kg.) was 0%, the “Percentage inhibition according to the ulcer index” value (Reserpine-ulcer; 10 mg./kg.) was 14% and the “Percentage inhibition according to ulcer diameters 2-5 mm.” value (Reserpine-ulcer; 10 mg./kg.) was 14%. For the same compound, the “Percentage inhibition according to ulcer diameters 5-10 mm.” value (Reserpine-ulcer; 10 mg./kg.) was 0%, the “Percentage inhibition according to ulcer diameters <2 mm.” value (Reserpine-ulcer; 10 mg./kg.) was 22% and the “Percentage inhibition according to ulcer diameters >10 mm.” value (Reserpine-ulcer; 10 mg./kg.) was 0%. For the same compound, the “Percentage inhibition according to the occurrence of ulcer” value (Reserpine-ulcer; 25 mg./kg.) was 70%, the “Percentage inhibition according to the ulcer index” value (Reserpine-ulcer; 25 mg./kg.) was 81% and the “Percentage inhibition according to ulcer diameters 2-5 mm.” value (Reserpine-ulcer; 25 mg./kg.) was 100%. The “Percentage inhibition according to ulcer diameters 5-10 mm.” value (Reserpine-ulcer; 25 mg./kg.) was 100%, the “Percentage inhibition according to ulcer diameters <2 mm.” value (Reserpine-ulcer; 25 mg./kg.) was 93% and the “Percentage inhibition according to ulcer diameters >10 mm.” value (Reserpine-ulcer; 25 mg./kg.) was 100%. For the same compound, the “Percentage inhibition according to the occurrence of ulcer” value (Reserpine-ulcer; 50 mg./kg.) was 90%, the “Percentage inhibition according to the ulcer index” value (Reserpine-ulcer; 50 mg./kg.) was 97% and the “Percentage inhibition according to ulcer diameters 2-5 mm.” value (Reserpine-ulcer; 50 mg./kg.) was 100%. For the same compound, the “Percentage inhibition according to ulcer diameters 5-10 mm.” value (Reserpine-ulcer; 50 mg./kg.) was 100%, the “Percentage inhibition according to ulcer diameters <2 mm.” value (Reserpine-ulcer; 50 mg./kg.) was 98% and the “Percentage inhibition according to ulcer diameters >10 mm.” value (Reserpine-ulcer; 50 mg./kg.) was 100%. For the same compound, the “Percentage inhibition of free HCl” value (gastric acid secretion [4]; 25 mg./kg. i.p.) was 33%, the “Percentage inhibition of total acidity” value (gastric acid secretion [4]; 25 mg./kg. i.p.) was 20% and the “Percentage inhibition of free HCl” value (gastric acid secretion [4]; 100 mg./kg. intraperitoneal) was 74%. The “Percentage inhibition of gastric juice” value (gastric acid secretion [4]; 100 mg./kg. intraperitoneal) was 48%, the “Percentage inhibition of total acidity” value (gastric acid secretion [4]; 100 mg./kg. intraperitoneal) was 56% and the “Percentage inhibition of gastric juice” value (gastric acid secretion [6]; 25 mg./kg. i.p.) was 13%. The “Percentage inhibition of free HCl” value (gastric acid secretion [6]; 50 mg./kg. p.o.) was 50%, the “Percentage inhibition of gastric juice” value (gastric acid secretion [6]; 50 mg./kg. p.o.) was 36% and the “Percentage inhibition of total acidity” value (gastric acid secretion [6]; 50 mg./kg. p.o.) was 39%. The “Percentage inhibition of free HCl” value (gastric acid secretion [6]; 100 mg./kg. p.o.) was 76%, the “Percentage inhibition of gastric juice” value (gastric acid secretion [6]; 100 mg./kg. p.o.) was 48% and the “Percentage inhibition of total acidity” value (gastric acid secretion [6]; 100 mg./kg. p.o.) was 63%. For the same compound, the “Percentage inhibition of free HCl” value (gastric acid secretion [6]; 200 mg./kg. i.p.) was 72%, the “Percentage inhibition of gastric juice” value (gastric acid secretion [6]; 200 mg./kg. i.p.) was 63% and the “Percentage inhibition of total acidity” value (gastric acid secretion [6]; 200 mg./kg. i.p.) was 64%. For the same compound, the LD50 ([2]; Table 4) was 2000 mg/kg.
